Columns and labels:
Format in all cases: functional
SK-OV-3 [1] = assay: Cytotoxicity against human SKOV3 cells assessed as cell growth at 1 uM after 1 to 11 days by MTT assay; settings: read-out: Activity
TK-10 [2] = assay: Cytotoxicity against human TK10 cells assessed as cell growth at 1 mM after 1 to 11 days by MTT assay; settings: read-out: Activity
MDA-MB-468 [3] = assay: Cytotoxicity against human MDA-MB-468 cells after 1 to 11 days by MTT assay
SW-620 = assay: Cytotoxicity against human SW620 cells after 1 to 11 days by MTT assay
COLO 205 = assay: Cytotoxicity against human COLO205 cells assessed as cell growth at 1 mM after 1 to 11 days by MTT assay; settings: read-out: Activity
A549 [4] = assay: Cytotoxicity against human A549 cells assessed as cell growth at 10 uM after 1 to 11 days by MTT assay; settings: read-out: Activity
LOX IMVI [5] = assay: Cytotoxicity against human LOXIMVI cells assessed as cell growth at 0.1 uM after 1 to 11 days by MTT assay; settings: read-out: Activity
OVCAR-8 = assay: Cytotoxicity against human OVCAR8 cells assessed as cell growth at 10 uM after 1 to 11 days by MTT assay; settings: read-out: Activity
SK-OV-3 [6] = assay: Cytotoxicity against human SKOV3 cells after 1 to 11 days by MTT assay
OVCAR-4 = assay: Cytotoxicity against human OVCAR4 cells assessed as cell growth at 100 uM after 1 to 11 days by MTT assay; settings: read-out: Activity
OVCAR-3 = assay: Cytotoxicity against human OVCAR-3 cells assessed as cell growth at 1 uM after 1 to 11 days by MTT assay; settings: read-out: Activity
U-251 [7] = assay: Cytotoxicity against human U251 cells assessed as cell growth at 1 uM after 1 to 11 days by MTT assay; settings: read-out: Activity
MDA-MB-231 = assay: Cytotoxicity against human MDA-MB-231 cells assessed as cell growth at 0.1 uM after 1 to 11 days by MTT assay; settings: read-out: Activity
[8] = Cytotoxicity against human Hs 578T cells assessed as cell growth at 10 uM after 1 to 11 days by MTT assay; settings: read-out: Activity
NCI-H226 [9] = assay: Cytotoxicity against human NCI-H226 cells assessed as cell growth at 1 mM after 1 to 11 days by MTT assay; settings: read-out: Activity
NCI-H226 [10] = assay: Cytotoxicity against human NCI-H226 cells assessed as cell growth at 0.1 uM after 1 to 11 days by MTT assay; settings: read-out: Activity
IGROV-1 = assay: Cytotoxicity against human IGROV1 cells assessed as cell growth at 1 uM after 1 to 11 days by MTT assay; settings: read-out: Activity
SNB-19 = assay: Cytotoxicity against human SNB19 cells assessed as cell growth at 1 mM after 1 to 11 days by MTT assay; settings: read-out: Activity
A549 [11] = assay: Cytotoxicity against human A549 cells assessed as cell growth at 0.1 uM after 1 to 11 days by MTT assay; settings: read-out: Activity
DU-145 = assay: Cytotoxicity against human DU145 cells assessed as cell growth at 1 mM after 1 to 11 days by MTT assay; settings: read-out: Activity
U-251 [12] = assay: Cytotoxicity against human U251 cells after 1 to 11 days by MTT assay
SF-539 [13] = assay: Cytotoxicity against human SF539 cells assessed as cell growth at 1 uM after 1 to 11 days by MTT assay; settings: read-out: Activity
T47D = assay: Cytotoxicity against human T47D cells assessed as cell growth at 10 uM after 1 to 11 days by MTT assay; settings: read-out: Activity
MCF7 = assay: Cytotoxicity against human MCF7 cells assessed as cell growth at 0.1 uM after 1 to 11 days by MTT assay; settings: read-out: Activity
TK-10 [14] = assay: Cytotoxicity against human TK10 cells assessed as cell growth at 100 uM after 1 to 11 days by MTT assay; settings: read-out: Activity
UACC-257 = assay: Cytotoxicity against human UACC257 cells assessed as cell growth at 100 uM after 1 to 11 days by MTT assay; settings: read-out: Activity
KM12 = assay: Cytotoxicity against human KM12 cells assessed as cell growth at 1 mM after 1 to 11 days by MTT assay; settings: read-out: Activity
UO-31 = assay: Cytotoxicity against human UO31 cells assessed as cell growth at 10 uM after 1 to 11 days by MTT assay; settings: read-out: Activity
786-0 = assay: Cytotoxicity against human 786-0 cells assessed as cell growth at 1 mM after 1 to 11 days by MTT assay; settings: read-out: Activity
NCI-H460 = assay: Cytotoxicity against human NCI-H460 cells assessed as cell growth at 1 uM after 1 to 11 days by MTT assay; settings: read-out: Activity
SR = assay: Cytotoxicity against human SR cells assessed as cell growth at 1 uM after 1 to 11 days by MTT assay; settings: read-out: Activity
SK-MEL-5 = assay: Cytotoxicity against human SK-MEL-5 cells assessed as cell growth at 0.1 uM after 1 to 11 days by MTT assay; settings: read-out: Activity
RXF 393 = assay: Cytotoxicity against human […] cells after 1 to 11 days by MTT assay
LOX IMVI [15] = assay: Cytotoxicity against human LOXIMVI cells after 1 to 11 days by MTT assay
HT-29 = assay: Cytotoxicity against human HT-29 cells assessed as cell growth at 10 uM after 1 to 11 days by MTT assay; settings: read-out: Activity
SF-539 [16] = assay: Cytotoxicity against human SF539 cells assessed as cell growth at 100 uM after 1 to 11 days by MTT assay; settings: read-out: Activity
MDA-MB-468 [17] = assay: Cytotoxicity against human MDA-MB-468 cells assessed as cell growth at 100 uM after 1 to 11 days by MTT assay; settings: read-out: Activity
BT-549 = assay: Cytotoxicity against human BT549 cells assessed as cell growth at 10 uM after 1 to 11 days by MTT assay; settings: read-out: Activity
LOX IMVI [18] = assay: Cytotoxicity against human LOXIMVI cells assessed as cell growth at 100 uM after 1 to 11 days by MTT assay; settings: read-out: Activity
PC-3 = assay: Cytotoxicity against human PC3 cells assessed as cell growth at 100 uM after 1 to 11 days by MTT assay; settings: read-out: Activity
UACC-62 = assay: Cytotoxicity against human UACC62 cells assessed as cell growth at 1 mM after 1 to 11 days by MTT assay; settings: read-out: Activity
ACHN = assay: Cytotoxicity against human ACHN cells assessed as cell growth at 10 uM after 1 to 11 days by MTT assay; settings: read-out: Activity
SF-268 = assay: Cytotoxicity against human SF268 cells assessed as cell growth at 1 uM after 1 to 11 days by MTT assay; settings: read-out: Activity
HCT-116 = assay: Cytotoxicity against human HCT116 cells assessed as cell growth at 1 mM after 1 to 11 days by MTT assay; settings: read-out: Activity
[19] = read-out: LC50 (the source's name)

`O=C1Nc2ncccc2/C1=C1/Nc2ccccc2/C1=N\O` showed a growth at 1 µM (SK-OV-3 [1]) of 93%, a growth at 1000 µM (TK-10 [2]) of 14% and a GI50 (MDA-MB-468 [3]) of 3.01 µM. For the same compound, the TGI (MDA-MB-468 [3]) was > 100 µM, the CC50 (MDA-MB-468 [3]; [19]) was > 100 µM and the GI50 (SW-620) was 7.45 µM. For the same compound, the TGI (SW-620) was > 100 µM, the CC50 (SW-620; [19]) was > 100 µM and the growth at 1000 µM (COLO 205) was 23%. It also gave a growth at 10 µM (A549 [4]) of 91%, a growth at 0.1 µM (LOX IMVI [5]) of 98% and a growth at 10 µM (OVCAR-8) of 84%. The GI50 (SK-OV-3 [6]) was 1.79 µM, the CC50 (SK-OV-3 [6]; [19]) was > 100 µM and the growth at 100 µM (OVCAR-4) was 48%. It also gave a growth at 1 µM (OVCAR-3) of 93%, a growth at 1 µM (U-251 [7]) of 97% and a growth at 0.1 µM (MDA-MB-231) of 99%. For the same compound, the growth at 10 µM [8] was 78%, the growth at 1000 µM (NCI-H226 [9]) was 13% and the growth at 0.1 µM (NCI-H226 [10]) was 86%. It also gave a growth at 1 µM (IGROV-1) of 84%, a growth at 1000 µM (SNB-19) of 83% and a growth at 0.1 µM (A549 [11]) of 102%. For the same compound, the growth at 1000 µM (DU-145) was 35%, the GI50 (U-251 [12]) was > 100 µM and the TGI (U-251 [12]) was > 100 µM. For the same compound, the CC50 (U-251 [12]; [19]) was > 100 µM, the growth at 1 µM (SF-539 [13]) was 91% and the growth at 10 µM (T47D) was 65%. For the same compound, the growth at 0.1 µM (MCF7) was 98%, the growth at 100 µM (TK-10 [14]) was 49% and the growth at 100 µM (UACC-257) was 79%. For the same compound, the growth at 1000 µM (KM12) was 6%, the growth at 10 µM (UO-31) was 62% and the growth at 1000 µM (786-0) was 39%. It also gave a growth at 1 µM (NCI-H460) of 105%, a growth at 1 µM (SR) of 89% and a growth at 0.1 µM (SK-MEL-5) of 104%. The GI50 (RXF 393) was 1.22 µM, the TGI (RXF 393) was > 100 µM and the CC50 (RXF 393; [19]) was > 100 µM. The GI50 (LOX IMVI [15]) was 5.17 µM, the TGI (LOX IMVI [15]) was > 100 µM and the CC50 (LOX IMVI [15]; [19]) was > 100 µM. For the same compound, the growth at 10 µM (HT-29) was 99%, the growth at 100 µM (SF-539 [16]) was 60% and the growth at 100 µM (MDA-MB-468 [17]) was 18%. The growth at 10 µM (BT-549) was 69%, the growth at 100 µM (LOX IMVI [18]) was 36% and the growth at 100 µM (PC-3) was 44%. It also gave a growth at 1000 µM (UACC-62) of 25%, a growth at 10 µM (ACHN) of 72% and a growth at 1 µM (SF-268) of 99%. It also gave a growth at 1000 µM (HCT-116) of 50%.

From ChEMBL document CHEMBL1154822, “Synthesis and antiproliferative activity of 7-azaindirubin-3'-oxime, a 7-aza isostere of the natural indirubin pharmacophore” (J Nat Prod, 2009)
